How the values were obtained:
[1] = system: hrpA promoter (T3SS); assay: hrpA promoter activity assay in DC3000 (GFP, flow cytometry); assay type: cell-based, Pseudomonas syringae pv. tomato DC3000; conditions: DC3000 (phrpA)
Method: Expression of hrpA was analyzed using a FACS Calibur flow cytometer as previously described (BD Biosciences, CA) (Peng et al. 2006). Wild-type DC3000 carrying the promoter-probe phrpA or pPROBE-NT (vector control) was grown in KB broth overnight and transferred to HIM or HIM supplemented with different compounds as described (Li et al. 2009). The promoter activity of hrpA in DC3000 was monitored by measuring GFP intensity using flow cytometry.
To determine the maximum concentration of TCA that will inhibit hrpA promoter activity without affecting bacterial growth, DC3000 carrying phrpA was cultured in HIM and HIM supplemented with 25 μM, 50 μM, 100 μM, 250 μM, or 500 μM of TCA. Promoter activity was measured at 6 h and 9 h as mentioned above using flow cytometry. Bacterial growth was determined by withdrawing samples of each culture and spot-plating serial dilutions onto King's B agar (King et al. 1954) in tandem with promoter activity assays. Colonies were counted after 48 h of incubation at 28° C.

[2] = system: hrpY mRNA; assay: qRT-PCR relative mRNA level of hrpY; assay type: cell-based, Dickeya dadantii 3937; conditions: 0.1 mM in MM
Method: (§1) Bacterial strains were grown in MM. Total RNA from the bacterial cells was isolated by using the TRI reagent method (Sigma, Mo.) and treated with Turbo DNA-free DNase kits (Ambion, Tex.) as described (Peng et al., 2006). An iScript cDNA Synthesis Kit (Bio-Rad, CA) was used to synthesize cDNA from 0.5 μg of treated total RNA. The Real Master Mix (Eppendorf, Westbury, N.Y.) was used for qRT-PCR reaction to quantify the cDNA level of target genes in different samples. The rplU was used as the endogenous control for data analysis. qRT-PCR data were analyzed using Relative Expression Software Tool as described (Pfaffl, M. W., Horgan, G. W., and Dempfle, L. (2002) Relative expression software tool (REST) for group-wise comparison and statistical analysis of relative expression results in real-time PCR. Nucleic Acids Res 30:e36.).

[3] = system: gacA mRNA; assay: qRT-PCR relative mRNA level of gacA; assay type: cell-based, Dickeya dadantii 3937; conditions: 0.1 mM in MM
Method: as §1

[4] = system: rsmB RNA; assay: Northern blot analysis of rsmB RNA; assay type: cell-based, D. dadanti 3937; conditions: bacterial cells cultured in media supplemented with compound (FIG. 23)
Source text: Northern blot analysis was used to quantify rsmB RNA of D. dadanti 3937.

## O=C(O)/C=C/c1ccccc1 [Compound 001, trans-cinnamic acid]
[1]; HIM + 25 μM or 50 μM
  effect on hrpA promoter activity, in words: less substantial effect
[1]; HIM + 100 μM
  reduction in hrpA promoter activity: 3 fold
[1]; HIM + 250 μM and 500 μM
  effect on hrpA promoter activity, in words: almost complete repression of hrpA promoter activity

## O=C(O)/C=C/c1ccccc1O [Compound 006, Ortho-coumaric acid]
[2]
  hrpY mRNA compared with MM alone, in words: No significant difference
[3]
  gacA mRNA compared with MM alone, in words: No significant difference

## O=C(/C=C/c1ccc(O)cc1)NO [Compound 103, trans-4-Hydroxycinnamohydroxamic acid]
[4]
  rsmB RNA level, Northern blot, in words: reduced rsmB mRNA

— patent publication US9260382B2, “Methods of reducing virulence in bacteria” (priority 2010, dated 2016)
